Some test systems named below: NCI-H23 lung; SK-MEL-28 melanoma; A549 NSCLC; UO-31 renal; LOX IMVI melanoma; RXF 393 renal; HT29 colon; MDA-MB-435; SW-620 colon; HCT-116 colon.
Test in all cases: NCI tumour cell line growth inhibition, 48 h

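Values below derive from 48-hour exposures of cells grown in 96-well plates, with endpoints linearly interpolated between the two concentrations bracketing the appropriate inhibition level. GI50 = concentration required for 50% inhibition of growth. TGI is the concentration that stops growth completely.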

Take `CC[C@@]1(OC(=O)CN)C(=O)OCc2c1cc1n(c2=O)Cc2cc3cc4c(cc3nc2-1)OCO4`: the GI50 in the test on NCI-H23 lung is less than 0.01 µM; in the test on SK-MEL-28 melanoma, 0.209 µM; in the test on A549 NSCLC, less than 0.01 µM; with UO-31 renal, less than 0.01 µM; with LOX IMVI melanoma it was less than 0.01 µM; with RXF 393 renal, less than 0.01 µM. Also, the GI50 with HT29 colon was less than 0.01 µM; in the test with MDA-MB-435 it was less than 0.0131 µM; in the test with SW-620 colon it was less than 0.01 µM. The TGI with NCI-H23 lung is less than 0.0128 µM; in the test with SK-MEL-28 melanoma it was 10.8 µM; in the test with A549 NSCLC it was 0.309 µM; with UO-31 renal, 0.111 µM; with LOX IMVI melanoma it was 0.119 µM; in the test on RXF 393 renal, 0.192 µM. Further, the TGI with MDA-MB-435 was determined as 0.838 µM.
`O=C(Cn1c(=O)c(-c2ccccc2)nc2ccccc21)c1ccc(Cl)cc1`: the GI50 in the test on NCI-H23 lung is more than 100 µM; in the test on SK-MEL-28 melanoma, 42.5 µM; in the test on A549 NSCLC, 58.3 µM; in the test on HCT-116 colon, more than 100 µM; in the test with UO-31 renal, 80.8 µM; in the test with LOX IMVI melanoma it was 55 µM. The GI50 in the test on HT29 colon is 41.7 µM; with MDA-MB-435, more than 100 µM; with SW-620 colon, more than 100 µM. Further, the TGI in the test with NCI-H23 lung, in the test on SK-MEL-28 melanoma, with A549 NSCLC, in the test on HCT-116 colon, with UO-31 renal and in the test with LOX IMVI melanoma was more than 100 µM in each case. Also, the TGI with HT29 colon, in the test with MDA-MB-435 and in the test on SW-620 colon was more than 100 µM in each case.
For the molecule `CN(C)c1ccc2c(c1)CN1C(=O)c3ccccc3C1=N2`, the GI50 in the test on NCI-H23 lung, in the test on SK-MEL-28 melanoma, in the test with A549 NSCLC, with HCT-116 colon, in the test on UO-31 renal and with LOX IMVI melanoma was more than 100 µM throughout. Further, the GI50 in the test with RXF 393 renal, with HT29 colon and in the test with SW-620 colon was more than 100 µM in each case. The TGI with NCI-H23 lung, in the test with SK-MEL-28 melanoma, in the test on A549 NSCLC, in the test on HCT-116 colon, in the test on UO-31 renal and with LOX IMVI melanoma was more than 100 µM each time. The TGI in the test on RXF 393 renal, in the test with HT29 colon and with SW-620 colon was more than 100 µM throughout.
Regarding `O=C(CCN1CCOCC1)Nc1ccc(F)cc1F`, the TGI in the test on NCI-H23 lung, with SK-MEL-28 melanoma, with A549 NSCLC, in the test with HCT-116 colon, in the test on UO-31 renal and with LOX IMVI melanoma was more than 100 µM each time. Further, the TGI with HT29 colon, in the test with MDA-MB-435 and in the test on SW-620 colon was more than 100 µM throughout.
For the molecule `COc1ccc(CN2C(=O)C(Cc3cc(OC)c(OC)c(C)c3OC)NC(=O)/C2=C/c2cc(OC)c(OC)c(C)c2OC)cc1` (stereo not drawn), the TGI with NCI-H23 lung was more than 100 µM; in the test with SK-MEL-28 melanoma, more than 100 µM; with A549 NSCLC, more than 100 µM; with HCT-116 colon, 60.7 µM; in the test with UO-31 renal, 74 µM; with LOX IMVI melanoma, more than 100 µM. For the same molecule, the TGI is 71.2 µM in the test with RXF 393 renal, 66.2 µM with HT29 colon and more than 100 µM in the test with SW-620 colon.
Turning to `Cc1cc(=O)oc2c(CN3CCCCC3)c(O)ccc12`, the TGI in the test with NCI-H23 lung, in the test on SK-MEL-28 melanoma, in the test on A549 NSCLC, with HCT-116 colon, in the test with LOX IMVI melanoma and in the test with RXF 393 renal was more than 100 µM in each case. The TGI with HT29 colon, with MDA-MB-435 and in the test with SW-620 colon was more than 100 µM in each case.
For `[N-]=[N+]=Nc1ccc(CCN2CCN(c3cccc(C(F)(F)F)c3)CC2)cc1I`, the TGI with NCI-H23 lung, in the test on SK-MEL-28 melanoma, with A549 NSCLC, in the test with HCT-116 colon, in the test on UO-31 renal and with LOX IMVI melanoma was more than 100 µM throughout. The TGI with RXF 393 renal, in the test on HT29 colon and with SW-620 colon was more than 100 µM each time.
Turning to `COc1ccc(-c2nn(-c3ccc(NC(=O)c4ccc(Cl)c(C(F)(F)F)c4)cc3)cc2-c2ccncc2)cc1Cl`, the GI50 was 2.15 µM in the test on NCI-H23 lung; 2.85 µM in the test on SK-MEL-28 melanoma; 1.81 µM in the test with A549 NSCLC; 1.05 µM with HCT-116 colon; 0.566 µM in the test with UO-31 renal; 0.168 µM in the test on RXF 393 renal. The GI50 in the test with HT29 colon is 0.337 µM; in the test with MDA-MB-435 it was 1.16 µM; with SW-620 colon, 1.06 µM. Further, the TGI is more than 100 µM in the test on NCI-H23 lung; more than 100 µM in the test on SK-MEL-28 melanoma; more than 100 µM in the test with A549 NSCLC; more than 100 µM in the test on HCT-116 colon; more than 24.7 µM in the test with UO-31 renal; 0.489 µM in the test with RXF 393 renal. In addition, the TGI in the test with HT29 colon is 1.96 µM; in the test on MDA-MB-435 it was more than 100 µM; in the test on SW-620 colon, more than 100 µM.
As for `Cc1onc(-c2c(F)cccc2Cl)c1-c1ncc(-c2ccc(Cl)cc2)o1`, the GI50 in the test on NCI-H23 lung is 5.04 µM; in the test on SK-MEL-28 melanoma it was 6.26 µM; in the test on A549 NSCLC it was 4.34 µM; in the test on HCT-116 colon, 2.76 µM; in the test with UO-31 renal it was 5.47 µM; in the test with RXF 393 renal, 6.45 µM. In addition, the values for the GI50 in the test with HT29 colon, in the test with MDA-MB-435 and with SW-620 colon were 3.89 µM, 5.59 µM and 4.35 µM, respectively. For the same molecule, the TGI with NCI-H23 lung was more than 100 µM; in the test on SK-MEL-28 melanoma, more than 100 µM; with A549 NSCLC it was more than 100 µM; in the test with HCT-116 colon, more than 100 µM; with UO-31 renal it was more than 100 µM; in the test with RXF 393 renal, 90.7 µM. Further, the TGI with HT29 colon, in the test on MDA-MB-435 and with SW-620 colon was more than 100 µM each time.
On to `C[C@@H](C1CCC2C3C(=CC(=O)[C@@]21C)[C@H](C)[C@]1(CCC(=O)O1)C1OC31)[C@H]1C[C@]2(C)O[C@@](C)(O1)OC2(C)C` (stereo partly drawn), for which the TGI in the test on NCI-H23 lung, in the test with SK-MEL-28 melanoma, in the test on A549 NSCLC, in the test on HCT-116 colon, with UO-31 renal and in the test with LOX IMVI melanoma was more than 100 µM in each case. Also, the TGI in the test with RXF 393 renal, in the test with HT29 colon and with SW-620 colon was more than 100 µM in each case.

The values are drawn from PubChem BioAssay (NCI).
